Source: ChEMBL document CHEMBL1201862, “PubChem BioAssay data set” (2004)
Active and inactive are the calls of the source.

How the values were obtained:
Cytochrome P450 2C19 = Cytochrome P450 2C19 (Homo sapiens, UniProt P33261); experiment: Cytochrome panel assay with activity outcomes. Panel member name: p450-cyp2c19 Compounds with AC50 equal or less than 10 uM are considered active; type: functional; conditions: read-out: AC50
Cytochrome P450 3A4 [1] = biological target: T1, Cytochrome P450 3A4 (Homo sapiens, UniProt P08684)
Cytochrome P450 2C9 = Cytochrome P450 2C9 (Homo sapiens, UniProt P11712)
[2] = growth inhibition of yeast DHODH-expressing 3D7 parasites – SYBR Green, dry powder samples, dose response (AID 1159570); type: functional, cell-based;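 further: parasite growth measured after 72 hours of compound exposure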
[3] = P. falciparum Dd2 growth inhibitors, dose response, SYBR Green, cherry-picked samples (AID 1159567); type: functional, cell-based
[4] = Dd2 malaria parasite growth inhibition potency – SYBR Green, dry powder samples, dose response (AID 1159566); type: functional, cell-based;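 further: potency for growth inhibition with lower SYBR green DNA signal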
[5] = growth inhibition of PfATP4-mutant resistant parasites – NITD609-resistant line, SYBR Green, dry powder, dose response (AID 1159571); type: functional, cell-based;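 further: parasites synchronized at ring stage by sorbitol before testing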
Large T antigen = Large T antigen (Simian virus 40, UniProt P03070); type: functional, Betapolyomavirus macacae;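 further: Confirmatory-stage PubChem screen for compounds that inhibit SV40 T antigen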
[6] = toxicity toward HepG2 liver cells – cell-based, plate reader, cherry-pick, antagonist series, cytotoxicity control, dose response (AID 743416); type: functional
[7] = blockade of melanocortin 4 receptor signaling – cell-based, plate reader, cherry pick, counter-screen for LGR2 antagonist project, dose response (AID 743444); type: functional;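 further: transfected HEK 293 cells stimulated with alpha-MSH peptide; potency of inhibitors of the alpha-MSH evoked signal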
[8] = intracellular Trypanosoma cruzi inhibitors in host cells – cell-based, plate reader, cherry-pick samples, set 3, dose response (AID 651818); type: functional;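 further: compounds incubated with infected cells for about four days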
[9] = blockers of bursicon-stimulated LGR2 cAMP reporter – cell-based, HEK293, CRE-luciferase reporter, cherry pick, set 2, dose response (AID 743343); type: functional;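 further: transfected cells were stimulated with diluted bursicon conditioned medium after compound addition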
[10] = viability loss in HEK293 cells – cell-based, plate reader, cherry-picked samples, cytotoxicity control, dose response (AID 743446); type: functional
[11] = A549 cell cytotoxicity, dose response, cytotoxicity control, plate reader, cherry-pick, antagonist series (AID 743412); type: functional, cell-based
BJ [12] = experiment: BJ-TERT-LT-ST fibroblast viability loss – cell-based, RAS-independent, luminescence, dose response (AID 1935); type: functional; conditions: Homo sapiens;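 further: BJ fibroblasts immortalized with TERT plus LT and ST oncogenes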
[13] = DRD fibroblast viability loss – cell-based, non-viral oncogenic, luminescence, dose response (AID 1934); type: functional; conditions: Homo sapiens
BJ [14] = experiment: BJ-TERT fibroblast viability loss – cell-based, RAS-independent, luminescence, dose response (AID 1933); type: functional; conditions: Homo sapiens
BJ [15] = experiment: cells; type: functional, cell-based; conditions: Homo sapiens
[16] = Luminescence Cell-Based Dose Confirmation HTS to Identify Activators of 5'UTR Stem-Loop Driven Alpha-Synuclein mRNA Translation in H4 Neuroglioblastoma Cells. [Related pubchem assays: 1829 (Project Summary), 1814 (Primary HTS)]; type: functional
H4 = experiment: Luminescence Cell-Based Dose Response HTS to Identify Activators of 5'UTR Stem-Loop Driven Prion Protein mRNA Translation in H4 Neuroglioblastoma Cells. [Related pubchem assays: 1829 (Project Summary), 1814 (Primary HTS)]; type: functional; conditions: Homo sapiens
[17] = Luminescence Cell-Based Dose Response HTS to Identify Activators of Luciferase Translation or Activity in H4 […] Cells. [Related pubchem assays: 1829 (Project Summary), 1814 (Primary HTS)]; type: functional
Cytochrome P450 1A2 = biological target: T2, Cytochrome P450 1A2 (Homo sapiens, UniProt P05177);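 further: PubChem cytochrome P450 panel assay, CYP1A2 panel member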
T2 sequence (P05177 whole entry): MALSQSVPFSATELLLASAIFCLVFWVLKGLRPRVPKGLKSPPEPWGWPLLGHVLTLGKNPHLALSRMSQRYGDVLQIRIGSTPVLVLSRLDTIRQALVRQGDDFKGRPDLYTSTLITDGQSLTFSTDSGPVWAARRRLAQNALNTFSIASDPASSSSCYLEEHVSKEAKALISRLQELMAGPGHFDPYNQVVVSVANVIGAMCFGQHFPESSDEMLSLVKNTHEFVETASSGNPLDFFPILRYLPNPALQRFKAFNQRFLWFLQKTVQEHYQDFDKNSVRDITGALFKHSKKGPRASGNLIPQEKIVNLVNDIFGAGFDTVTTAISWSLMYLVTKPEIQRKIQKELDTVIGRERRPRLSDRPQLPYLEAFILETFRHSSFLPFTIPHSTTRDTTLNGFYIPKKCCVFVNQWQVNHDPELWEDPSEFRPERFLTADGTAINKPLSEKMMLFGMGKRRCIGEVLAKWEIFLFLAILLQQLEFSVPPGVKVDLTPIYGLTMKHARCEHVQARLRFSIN

[18] = biological target: T3, Rac GTPase-activating protein 1 (Homo sapiens, UniProt Q9H0H5); experiment: blockers of MgcRacGAP-driven Rac1 GTP hydrolysis – biochemical, ADP Hunter fluorescence, primary and confirmatory, confirmation (AID 624330); type: functional
T3 sequence (Q9H0H5 whole entry): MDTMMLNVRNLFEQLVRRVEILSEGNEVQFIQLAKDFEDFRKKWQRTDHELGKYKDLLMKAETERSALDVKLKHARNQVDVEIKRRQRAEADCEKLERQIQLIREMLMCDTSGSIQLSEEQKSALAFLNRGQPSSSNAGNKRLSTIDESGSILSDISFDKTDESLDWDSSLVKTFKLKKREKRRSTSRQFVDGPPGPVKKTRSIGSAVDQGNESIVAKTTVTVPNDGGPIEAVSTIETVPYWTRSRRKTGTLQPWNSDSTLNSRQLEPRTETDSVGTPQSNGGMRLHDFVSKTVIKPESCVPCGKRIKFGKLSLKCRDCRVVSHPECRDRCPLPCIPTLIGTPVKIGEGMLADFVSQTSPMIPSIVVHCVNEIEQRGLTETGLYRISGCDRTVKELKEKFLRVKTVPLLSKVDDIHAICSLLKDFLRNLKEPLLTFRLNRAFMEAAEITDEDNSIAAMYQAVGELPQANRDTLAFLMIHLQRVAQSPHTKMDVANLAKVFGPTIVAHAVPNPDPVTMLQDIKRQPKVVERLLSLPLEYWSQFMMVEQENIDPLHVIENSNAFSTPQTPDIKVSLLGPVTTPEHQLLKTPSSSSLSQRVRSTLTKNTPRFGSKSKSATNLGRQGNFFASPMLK

[19] = biological target: Glyceraldehyde-3-phosphate dehydrogenase (Homo sapiens, UniProt P04406)
Leucine aminopeptidase = biological target: T4, Leucine aminopeptidase (Plasmodium falciparum 3D7, UniProt Q8IL11); experiment: P. falciparum M17LAP inhibitors, primary screen, biochemical, fluorogenic H-Leu-NHMec substrate, 1536-well (AID 1619); type: functional
T4 sequence (Q8IL11 whole entry): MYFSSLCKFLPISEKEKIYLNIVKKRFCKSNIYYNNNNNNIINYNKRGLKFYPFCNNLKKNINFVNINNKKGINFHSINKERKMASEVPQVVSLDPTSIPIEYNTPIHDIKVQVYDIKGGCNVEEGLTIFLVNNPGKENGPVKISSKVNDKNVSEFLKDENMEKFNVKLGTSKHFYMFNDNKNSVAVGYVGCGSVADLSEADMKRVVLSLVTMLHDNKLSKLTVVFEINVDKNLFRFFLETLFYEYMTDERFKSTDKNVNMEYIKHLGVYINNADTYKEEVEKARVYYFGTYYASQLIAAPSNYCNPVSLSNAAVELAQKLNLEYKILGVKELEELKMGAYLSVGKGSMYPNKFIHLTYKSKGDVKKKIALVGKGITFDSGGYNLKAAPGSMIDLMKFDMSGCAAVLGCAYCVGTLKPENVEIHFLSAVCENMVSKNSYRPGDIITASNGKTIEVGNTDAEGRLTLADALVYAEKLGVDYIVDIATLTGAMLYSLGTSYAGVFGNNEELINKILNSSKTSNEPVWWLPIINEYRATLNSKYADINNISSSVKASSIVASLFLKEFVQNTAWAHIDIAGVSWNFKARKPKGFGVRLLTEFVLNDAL

Cytochrome P450 3A4 [20] = biological target: T1, Cytochrome P450 3A4; conditions: Potency
[21] = blockers of HIV-1 envelope-mediated cell-cell fusion – cherry-pick, dose response (AID 652057); type: functional, cell-based
[22] = HIV-1 AD8 envelope cell-cell fusion blockers – cherry-pick, dose response (AID 652062); type: functional, cell-based;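 further: luciferase signal from cell-cell fusion driven by HIV-1 clade B AD8 Env; potency is for inhibitors of fusion seen as a drop in luminescence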
[23] = blockers of HIV-1 ZM109 envelope-driven cell-cell fusion – HeLa effector, CEM target cells, luciferase, cherry-pick, dose response (AID 652058); type: functional, cell-based;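 further: luciferase signal from HIV-1 Env mediated cell-cell fusion of effector and target cells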

T1 sequence (P08684 whole entry): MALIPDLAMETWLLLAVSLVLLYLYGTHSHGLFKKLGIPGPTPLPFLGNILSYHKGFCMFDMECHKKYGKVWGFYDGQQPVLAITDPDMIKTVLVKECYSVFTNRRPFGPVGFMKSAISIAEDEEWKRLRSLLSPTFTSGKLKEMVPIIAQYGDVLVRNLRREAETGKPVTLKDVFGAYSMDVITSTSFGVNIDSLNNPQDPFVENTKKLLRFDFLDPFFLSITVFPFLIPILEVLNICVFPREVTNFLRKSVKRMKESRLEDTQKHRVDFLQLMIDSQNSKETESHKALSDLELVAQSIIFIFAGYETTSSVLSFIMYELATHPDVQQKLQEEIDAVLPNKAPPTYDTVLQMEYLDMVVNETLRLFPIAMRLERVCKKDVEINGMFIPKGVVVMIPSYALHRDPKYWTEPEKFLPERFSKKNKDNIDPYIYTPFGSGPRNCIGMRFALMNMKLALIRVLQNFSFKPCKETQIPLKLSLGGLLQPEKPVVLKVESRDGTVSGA
Cytochrome P450 2C9, sequence (P11712 whole entry): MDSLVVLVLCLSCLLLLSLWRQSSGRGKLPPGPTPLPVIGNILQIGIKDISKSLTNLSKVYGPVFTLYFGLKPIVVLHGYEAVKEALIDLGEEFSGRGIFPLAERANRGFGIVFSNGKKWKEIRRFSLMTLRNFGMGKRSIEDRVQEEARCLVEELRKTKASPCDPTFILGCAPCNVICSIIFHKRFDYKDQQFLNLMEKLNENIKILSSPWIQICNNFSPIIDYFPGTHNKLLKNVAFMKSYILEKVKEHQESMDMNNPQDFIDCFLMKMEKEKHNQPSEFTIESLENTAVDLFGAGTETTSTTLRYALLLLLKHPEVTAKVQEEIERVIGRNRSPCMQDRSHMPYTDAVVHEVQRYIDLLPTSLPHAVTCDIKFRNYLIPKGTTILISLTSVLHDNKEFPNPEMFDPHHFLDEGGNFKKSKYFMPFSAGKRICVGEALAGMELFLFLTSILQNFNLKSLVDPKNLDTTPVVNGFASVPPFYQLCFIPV
Large T antigen, sequence (P03070 whole entry): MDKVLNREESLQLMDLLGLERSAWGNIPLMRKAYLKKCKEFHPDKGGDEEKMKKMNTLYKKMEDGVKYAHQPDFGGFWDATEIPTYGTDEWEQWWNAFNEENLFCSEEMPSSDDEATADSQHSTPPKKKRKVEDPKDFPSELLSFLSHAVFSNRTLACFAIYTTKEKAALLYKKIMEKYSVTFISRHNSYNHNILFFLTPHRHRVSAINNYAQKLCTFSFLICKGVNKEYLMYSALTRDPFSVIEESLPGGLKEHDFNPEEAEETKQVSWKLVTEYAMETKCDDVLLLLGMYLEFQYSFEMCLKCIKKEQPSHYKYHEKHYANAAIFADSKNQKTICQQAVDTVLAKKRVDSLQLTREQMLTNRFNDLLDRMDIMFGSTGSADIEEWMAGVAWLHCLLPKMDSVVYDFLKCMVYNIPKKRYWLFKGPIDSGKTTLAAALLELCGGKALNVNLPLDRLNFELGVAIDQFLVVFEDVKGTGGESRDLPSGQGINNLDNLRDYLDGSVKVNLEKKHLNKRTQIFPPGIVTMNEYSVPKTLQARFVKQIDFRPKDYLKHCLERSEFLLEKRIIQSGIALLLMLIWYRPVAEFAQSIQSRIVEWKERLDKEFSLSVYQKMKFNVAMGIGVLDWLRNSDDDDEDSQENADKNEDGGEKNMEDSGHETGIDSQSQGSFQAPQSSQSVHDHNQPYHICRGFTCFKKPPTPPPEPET
Cytochrome P450 2C19, sequence (P33261 whole entry): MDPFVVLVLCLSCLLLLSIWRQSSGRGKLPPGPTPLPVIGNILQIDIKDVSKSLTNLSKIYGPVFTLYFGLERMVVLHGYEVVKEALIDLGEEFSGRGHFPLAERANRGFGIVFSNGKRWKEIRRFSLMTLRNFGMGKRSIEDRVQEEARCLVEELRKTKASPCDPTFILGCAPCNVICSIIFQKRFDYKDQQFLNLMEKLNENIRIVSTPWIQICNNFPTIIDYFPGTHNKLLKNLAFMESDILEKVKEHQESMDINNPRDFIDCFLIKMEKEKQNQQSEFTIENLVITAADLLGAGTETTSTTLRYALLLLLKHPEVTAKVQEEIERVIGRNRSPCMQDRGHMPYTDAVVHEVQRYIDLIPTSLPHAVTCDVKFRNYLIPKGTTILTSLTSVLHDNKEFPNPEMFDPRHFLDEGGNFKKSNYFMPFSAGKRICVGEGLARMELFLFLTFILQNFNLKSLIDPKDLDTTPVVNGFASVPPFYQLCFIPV
Glyceraldehyde-3-phosphate dehydrogenase, sequence (P04406 whole entry): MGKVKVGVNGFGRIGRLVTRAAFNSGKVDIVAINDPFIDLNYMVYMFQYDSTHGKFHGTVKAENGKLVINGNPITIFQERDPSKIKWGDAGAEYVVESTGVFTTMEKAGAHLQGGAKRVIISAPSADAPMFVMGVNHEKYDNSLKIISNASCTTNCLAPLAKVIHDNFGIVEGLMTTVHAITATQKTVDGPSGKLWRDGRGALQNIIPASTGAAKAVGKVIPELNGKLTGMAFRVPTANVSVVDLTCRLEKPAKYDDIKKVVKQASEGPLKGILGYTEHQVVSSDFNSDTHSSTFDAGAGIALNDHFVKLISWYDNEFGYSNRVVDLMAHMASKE

For CC12CCC(C(=O)Nc3ccccc3Br)(C/C1=N\O)C2(C)C (stereo not given), the AC50 (Cytochrome P450 2C19) was 31.6 µM (inconclusive), the AC50 (Cytochrome P450 3A4 [1]) was 20 µM (inconclusive) and the AC50 (Cytochrome P450 2C9) was “inconclusive”.
In the case of C[C@H]1CN([C@@H](C)CO)C(=O)c2c(c3ccccc3n2C)-c2ccccc2CO[C@@H]1CN(C)C(=O)Nc1cccc(C(F)(F)F)c1, the AC50 [2] was 0.871 µM (active), the AC50 [3] was 1.13 µM (active) and the AC50 [4] was 0.442 µM (active). The AC50 [5] was 0.376 µM (active).
For Cc1cccc(C(=O)Nc2ccc(O)cc2)c1, the IC50 (Large T antigen) was 10.7 µM (active).
In the case of C[C@H](CO)N1C[C@H](C)[C@@H](CN(C)Cc2ccc3c(c2)OCO3)Oc2c(NC(=O)Nc3ccc(C(F)(F)F)cc3)cccc2C1=O, the AC50 [6] was 21.2 µM (active), the AC50 [7] was 11.9 µM (active) and the AC50 [8] was 2.74 µM (active). For the same molecule, the AC50 [9] was 19.6 µM (active), the AC50 [10] was 17.3 µM (active) and the AC50 [11] was 25.6 µM (active).
In the case of COc1ccc(-c2cc3nc(NCC4CCCCC4)n(C)c(=O)c3s2)cc1OC, the AC50 [6] was > 52 µM (inactive), the AC50 [7] was 2.51 µM (active) and the AC50 [9] was 12.8 µM (active). For the same molecule, the AC50 [11] was 45.8 µM (active).
In the case of Cc1ccc2cc(CN(Cc3ccco3)C(=O)c3cccs3)c(O)nc2c1, the EC50 (BJ [12]) was 5.07 µM (active), the EC50 [13] was 4.87 µM (active) and the EC50 (BJ [14]) was 13 µM (active). For the same molecule, the EC50 (BJ [15]) was 74.4 µM (active).
With Cn1c(-c2ccc3ccccc3n2)[n+](C)c2ccccc21 the EC50 [16] was > 120 µM (not active), the EC50 (H4) was 40 µM (active) and the EC50 [17] was 12.7 µM (active).
In the case of CCn1c(SCC(=O)c2ccc(OC)cc2)nnc1C1CC1, the AC50 (Cytochrome P450 1A2) was 17.8 µM (inconclusive) and the AC50 (Cytochrome P450 2C9) was “inconclusive”.
With C/N=c1\scc(C)n1/N=C/c1cc(Br)c(O)c(OC)c1 the IC50 [18] was 14.4 µM (active) and the IC50 (Large T antigen) was 5.8 µM (active).
With CN1CCN(C2=C(Cl)C(=O)N(c3cccc(C(F)(F)F)c3)C2=O)CC1 the IC50 [19] was > 50 µM (inconclusive).
With CCSc1nnc(NC(=O)C2(C)Cc3ccccc3C(=O)O2)s1 (stereo not given) the IC50 (Leucine aminopeptidase) was 33.6 µM (active).
With CCC(=O)OC1CCC2C3CCc4cc(O)ccc4C3CC[C@]12C (stereo not given in full) the AC50 (Cytochrome P450 3A4 [20]) was 39.8 µM (inconclusive).
With N=C(Cc1cccs1)NOC(=O)COc1ccccc1Cl the EC50 [16] was 7.6 µM (active), the EC50 (H4) was 46 µM (active) and the EC50 [17] was 50.4 µM (active).
In the case of CC1(C)C(O)CC(=O)[C@]2(C)C1CC(=O)[C@]1(C)C2CC[C@@]2(C)C(c3ccoc3)OC(=O)C3O[C@@]321 (stereo not given in full), the AC50 (Cytochrome P450 3A4 [20]) was 10 µM (inconclusive).
In the case of CCCn1c(C)nc2c(NCCN3CCOCC3)nc(C)nc21, the AC50 (Cytochrome P450 3A4 [20]) was 20 µM (inconclusive).
In the case of CC(C)CC#Cc1ccc2c(c1)O[C@@H](CN(C)S(=O)(=O)c1cccc(F)c1)[C@@H](C)CN([C@H](C)CO)S2(=O)=O, the AC50 [21] was 5.91 µM (active), the AC50 [22] was 26.5 µM (active) and the AC50 [23] was 0.919 µM (active).
